Consider 2 molecules from patent publication US20060135624A1, “Natural compound useful for treating diabetes, its preparation and use” (JINGYU LIANG ET AL, priority 2002, published 2006).

Assay [1] has as its system mouse hyperglycemia induced by Streptozocin. The assay can be described thus: Effect of Sequoyitol on mouse hyperglycemia induced by Streptozocin. It counts as in vivo, Kunming mice. As for the experimental part:
1. Experimental Methods^[7,8] • Among 66 mice, 10 mice were randomly selected as normal group, and the residual mice were administrated with 160 mg/kg Streptozocin by vena caudalis injection, modeled according to methods of documents, and divided into 5 groups according to blood-sugar level, wherein 4 groups were perorally administrated with 25, 50 and 100 mg/kg of Sequoyitol and 75 mg/kg of phenformine according to 0.1 ml/10 g of body weight, respectively, and the normal group and modeling group were administrated with the same volum of distilled water. These administrations were conducted for continuous 18 days. The blood-sugar levels of the mice were separately measured at 6th and 12th day after the administration. At the 18th day, blood was collected by excising eyeballs, serum was separated, and the blood sugar level, insulin level, cholesterol content, triglyceride content, malonaldehyde content, and hepatocuprein activity of serum were measured; liver tissue was homogenated, and the malonaldehyde content and hepatocuprein activity of liver tissue were measured; and pancreatic gland was soaked in 10% formalin, embedded with paraffin, sliced, and dyed with HE.

Assay [2] relates to rat hyperglycemia induced by alloxan. The assay can be described thus: Effect of Sequoyitol on rat hyperglycemia induced by alloxan. In kind it is in vivo, SD rats. As for the experimental part:
1. Experimental Methods^[5,6] • 5 Rats were randomly selected as normal group, the other 55 rats were fasted for 14-16 hours, administrated with 30 mg/kg of Pentobarbital by intra-abdominal injection. After paralyzed, the rats were administrated with 48 mg/kg of alloxan by vena femoralis injection, modeled according to methods of documents, and divided into 5 groups according to blood-sugar level, wherein each group had 11 rats, and 4 groups were orally administrated with 25, 50 and 100 mg/kg of Sequoyitol and 75 mg/kg of phenformine according to 1 ml/100 g of body weight, respectively, and the normal group and modeling group were administrated with the same volum of distilled water. These administrations were conducted for continuous 18 days. The fasting blood-sugar levels of the rats were separately measured at 6th and 12th day after the administration. At the 18th day, blood was collected from arteria femoralis, and the blood sugar level, insulin level, cholesterol content, triglyceride content, malonaldehyde content, and hepatocuprein activity of serum were measured; liver tissue was homogenated, and the malonaldehyde content, and hepatocuprein activity of liver tissue were measured; and pancreatic gland was soaked in 10% formalin, embedded with paraffin, sliced, and dyed with HE.

The test system of assay [3] is mouse hyperglycemia induced by glucose. The assay is described as follows: Effect of Sequoyitol on mouse hyperglycemia induced by glucose. It counts as in vivo, Kunming mice. Particulars: phenformine 75 mg/kg oral 7 days; 30, 60, 90, 120 minutes after i.p. glucose. As for the experimental part:
1. Experimental Method^[4] • 72 Mice were randomly divided into 6 groups, […] according to 0.1 ml/10 g of body weight, respectively, and the normal group and modeling group were administrated with the same volum of distilled water. These administrations were conducted for continuous 7 days. The normal group was administrated with the same volum of physiological saline by injection, while other groups were administrated with […] of glucose by intra-abdominal injection. After 30, 60, 90 and 120 minutes of administration, bloods were collected from venous plexus behind fossa orbitalis, the serums were separated, and the blood-sugar levels were separately detected by glucose oxidase method.

Assay [4] relates to mouse hyperglycemia induced by alloxan. The assay can be described thus: Time-effect relation of Sequoyitol to mouse hyperglycemia induced by alloxan. To be noted: phenformine 75 mg/kg p.o. 7 days. In kind it is in vivo, Kunming mice. As for the experimental part: 1. Experimental Methods^[1,2] • Alloxan was administrated to each of 30 mice by caudal vein injection with a dose of 65 mg/kg, and the mice were modeled according to the method of documents, divided into 3 groups according to blood-sugar values, […] according to […] of body weight, and the modeling group was administrated with the same volum of distilled water, separately. These administrations were conducted for continuous 7 days, and the mice were fasted for 2 hours before the last administration, and their blood-sugar levels were detected by glucose oxidase method at 1 2, 3 and 5 hours after the last administration.

Assay [5] has the same test system. The assay is described as follows: Effects of Sequoyitol on mouse hyperglycemia induced by alloxan. Particulars: phenformine 75 mg/kg p.o. 7 days. In kind it is in vivo, Kunming mice. As to the method: 1. Experimental Methods^[1,2] • Among 60 mice, 10 mice were randomly selected as normal group, and the residual mice were administrated with 65 mg/kg alloxan by caudal vein injection, modeled according to the method of documents, and divided into 5 groups according to blood-sugar values, wherein 4 groups were perorally administrated with 25, 50 and 100 mg/kg of Sequoyitol and 75 mg/kg of phenformine according to 0.1 ml/10 g of body weight, respectively, and the normal group and modeling group were administrated with the same volum of distilled water, separately. These administrations were conducted for continuous 7 days. The blood-sugar levels were detected by glucose oxidase method. The pancreatic glands of the mice were soaked in 10% formalin, embedded with paraffin, sliced, and dyed with HE dye.

For assay [6], the system named is blood-sugar level of normal mice. The assay is described as follows: Effect of Sequoyitol on blood-sugar level of normal mice. Particulars: Glibenclamide 50 mg/kg oral 7 days. It counts as in vivo, Kunming mice. As for the experimental part: 1. Experimental Method^[3] • 60 Mice were randomly divided into 5 groups, […] according to 0.1 ml/10 g of body weight, respectively, and the normal group was administrated with the same volum of the same volum of distilled water. These administrations were conducted for continuous 7 days. The blood-sugar levels were detected by glucose oxidase method.

Assay [7] has as its system mouse hyperglycemia induced by adrenalin. The assay is described as follows: Effect of Sequoyitol on mouse hyperglycemia induced by adrenalin. It counts as in vivo, Kunming mice. To be noted: Glibenclamide 10 mg/kg oral 7 days. As for the experimental part: 1. Experimental Methods^[3] • 72 Mice were randomly divided into 6 groups, wherein 4 groups were orally administrated with 25, 50 and 100 mg/kg of Sequoyitol and 10 mg/kg of Glibenclamide according to 0,1 ml/10 g of body weight, respectively, and the normal group and modeling group were administrated with the same volum of distilled water. These administrations were conducted for continuous 7 days. The normal group was administrated with the same volum of physiological saline by injection, while other groups were administrated with 0.2 mg/kg of adrenalin by intra-abdominal injection. The blood-sugar levels were detected by glucose oxidase method after 30 minutes of administration. The livers of the mice were collected, and hepatic glycogen levels were detected by anthrone method.

The mark [8] stands for this setting: phenformine 75 mg/kg p.o. 18 days.
Where [9] appears, read: phenformine 75 mg/kg oral 18 days.

Turning to `[H]/N=C(/N)N/C(=N/[H])NCCc1ccccc1` [phenformine, reference compound], the “body weight of mice compared to the control group” value in assay [1] (phenformine 75 mg/kg p.o.) is given as “did not significantly change”. Moreover, in assay [1] (setting [8]), the “activity of hepatocuprein in serum compared to the control group” value is listed as “did not significantly change”, the “content of cholesterol in serum compared to the control group” value is “did not significantly change”, the “content of malonaldehyde in liver tissue compared to the control group” value is recorded as “did not significantly change” and the “content of triglyceride in serum compared to the control group” value is listed as “did not significantly change”. Further, in assay [1] (setting [8]), the “hyalinization of interstitial small vessels (histopathologic examination)” value is on record as “not alleviated”; the “number of pancreatic islands and number of cells in pancreatic islands (histopathologic examination)” value is given as “slightly increased”; the “serum insulin level compared to the control group” value is recorded as “increased”. Moreover, the “Streptozocin-induced hyperglycemia compared to the control group” value in assay [1] (phenformine 75 mg/kg p.o., 12th day) is listed as “significantly alleviated”. Moreover, the “body weight of rats compared to the control group” value in assay [2] (phenformine 75 mg/kg oral) was “did not significantly change”. Further, in assay [2] (setting [9]), the “activity of hepatocuprein in liver tissue compared to the control group” value is on record as “did not significantly change”, the “activity of hepatocuprein in serum compared to the control group” value was “did not significantly change”, the “content of cholesterol in serum compared to the control group” value is given as “did not significantly change” and the “content of malonaldehyde in liver tissue compared to the control group” value is “decreased slightly”. Further, in assay [2] (setting [9]), the “content of malonaldehyde in serum compared to the control group” value was “decreased slightly”, the “content of triglyceride in serum compared to the control group” value is “did not significantly change” and the “serum insulin level compared to the control group” value is reported as “increased”. In addition, the “alloxan-induced hyperglycemia compared to the control group” value in assay [2] (phenformine 75 mg/kg oral, since the 6th day) is “highly significantly alleviated”. In addition, in assay [3], the “glucose-induced hyperglycemia compared to the control group” value is “highly significantly alleviated”. Moreover, in assay [4] (1 hour after last administration), the “blood-sugar level decreased compared to the control group” value was 163.1 mg/dL. In addition, the “blood-sugar level decreased compared to the control group” value in assay [4] (2 hours after last administration) was 159.3 mg/dL. The “blood-sugar level decreased compared to the control group” value in assay [4] (3 hours after last administration) was determined as 104.2 mg/dL. For the same molecule, in assay [4] (5 hours after last administration), the “blood-sugar level decreased compared to the control group” value amounted to 56.6 mg/dL. Further, in assay [5], the “blood-sugar level decreased compared to the control group” value was 152.8 mg/dL; the “number of pancreatic islands and number of islet cells (histopathologic examination) compared to the model group” value is reported as “increased slightly”.

`COc1ccc(Cl)cc1C(=O)NCCc1ccc(S(=O)(=O)NC(=O)NC2CCCCC2)cc1` [Glibenclamide, reference compound]: the “blood-sugar level decreased compared to the normal group” value in assay [6] was 19.3 mg/dL. Also, the “blood-sugar level decreased compared to the control group” value in assay [7] (30 minutes after adrenalin 0.2 mg/kg i.p.) was 40.1 mg/dL. In addition, the “hepatic glycogen level increased compared to the control group” value in assay [7] (adrenalin model) is on record as 1.28 mg/g of liver tissue.
